The compounds below were run against ASK1 (Homo sapiens (Human), UniProt Q99683) (assay: HTRF KinEASE assay, inhibition of ASK1). Settings: ASK1 kinase, 100 μM ATP, 1 μM STK3 peptide substrate, TR-FRET.
Type: biochemical
Experimental: Assay HTRF® KinEASE™ Assay
ASK1 was purchased from Thermofisher (Catalogue #PV4011), ATP was purchased from Sigma (Catalogue #A7699), HTRF® KinEASE™ Assay System was obtained from Cisbio (Bedford, Mass.). ½ Area plate was purchased from Perkin Elmer (Catalogue ##6005560). HTRF® KinEASE™-STK is a generic method for measuring serine/threonine kinase activities using a time-resolved fluorescence resonance energy transfer (TR-FRET) immunoassay. The IC50 value for each compound was determined in the presence of compound (various concentration from 0 to 10 μM) and a fixed amount of ATP and peptide substrates. The test compound, 1 μM STK3 peptide substrate, and […] of ASK1 kinase are incubated with kinase reaction buffer containing 50 mM HEPES Ph 7.5, 0.01% BRIJ-35, 10 mM MgCl2, and 1 mM EGTA for 30 minutes. 100 μM ATP is added to start kinase reaction and incubated for 3 hours. The STK3-antibody labeled with Eu^3+-Cryptate and 125 nM streptavidin-XL665 are mixed in a single addition with stop reagents provided by the Cisbio kit used to stop the kinase reaction. Fluorescence is detected using an Envision Multilabeled 2014 reader from PerkinElmer. The Fluorescence is measured at 615 nm (Cryptate) and 665 nm (XL665) and a ratio of 665 nm/615 nm is calculated for each well. The resulting TR-FRET is proportional to the phosphorylation level. Staurosporine was used as the positive control. IC50 was determined by Xlfit 5.3.
By using above method, the inhibition of ASK1 was evaluated for the compounds of Formula (I). Example numbers correspond to those in Table 6.

Sequence of ASK1 (Q99683 whole entry): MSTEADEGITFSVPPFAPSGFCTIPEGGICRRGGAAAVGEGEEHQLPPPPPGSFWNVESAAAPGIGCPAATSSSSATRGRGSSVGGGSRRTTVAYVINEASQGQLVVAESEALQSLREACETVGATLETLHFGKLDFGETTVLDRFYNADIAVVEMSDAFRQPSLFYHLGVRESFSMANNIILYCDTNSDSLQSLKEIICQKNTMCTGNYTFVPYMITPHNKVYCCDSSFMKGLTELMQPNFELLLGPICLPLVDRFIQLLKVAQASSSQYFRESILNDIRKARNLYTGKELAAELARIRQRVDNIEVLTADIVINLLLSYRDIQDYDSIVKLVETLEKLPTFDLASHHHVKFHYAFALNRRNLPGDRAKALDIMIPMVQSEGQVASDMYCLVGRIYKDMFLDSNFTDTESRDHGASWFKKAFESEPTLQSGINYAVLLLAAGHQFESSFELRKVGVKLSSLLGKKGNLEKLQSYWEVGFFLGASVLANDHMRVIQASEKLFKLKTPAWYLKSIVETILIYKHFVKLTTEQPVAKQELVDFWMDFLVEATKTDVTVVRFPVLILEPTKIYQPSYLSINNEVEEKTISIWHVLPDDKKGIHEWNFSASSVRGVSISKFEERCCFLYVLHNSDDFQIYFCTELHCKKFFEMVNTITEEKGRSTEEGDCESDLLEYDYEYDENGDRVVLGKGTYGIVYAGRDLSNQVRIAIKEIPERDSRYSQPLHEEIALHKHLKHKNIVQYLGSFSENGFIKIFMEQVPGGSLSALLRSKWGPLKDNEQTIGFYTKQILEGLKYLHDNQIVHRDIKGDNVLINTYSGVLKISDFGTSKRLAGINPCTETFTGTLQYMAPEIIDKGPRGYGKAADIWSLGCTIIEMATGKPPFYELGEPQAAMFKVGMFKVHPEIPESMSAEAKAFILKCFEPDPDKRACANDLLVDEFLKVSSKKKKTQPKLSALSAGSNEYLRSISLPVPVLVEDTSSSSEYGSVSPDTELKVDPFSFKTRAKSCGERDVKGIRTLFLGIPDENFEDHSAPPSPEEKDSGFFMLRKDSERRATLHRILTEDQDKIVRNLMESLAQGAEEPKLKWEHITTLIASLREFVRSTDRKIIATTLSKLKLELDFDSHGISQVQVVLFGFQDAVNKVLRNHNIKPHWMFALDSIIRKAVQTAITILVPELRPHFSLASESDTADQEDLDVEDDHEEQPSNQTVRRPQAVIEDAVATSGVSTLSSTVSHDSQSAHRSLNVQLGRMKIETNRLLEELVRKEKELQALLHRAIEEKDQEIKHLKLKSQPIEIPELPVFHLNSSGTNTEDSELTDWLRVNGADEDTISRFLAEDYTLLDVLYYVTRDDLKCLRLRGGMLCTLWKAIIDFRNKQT

IC50, 1.25 to 10 nM:
CCOC(=O)N1CCc2cc(F)c(C(=O)Nc3cccc(-c4nnc5n4C(C)(C)CC5)n3)cc2C1 [Example 11, Ethyl 7-((6-(5,5-dimethyl-6,7-dihydro-5H-pyrrolo[2,1-c][1,2,4]triazol-3-yl)pyridin-2-yl)carbamoyl)-6-fluoro-3,4-dihydroisoquinoline-2(1H)-carboxylate]
CCOC(=O)N1CCc2cc(F)c(C(=O)Nc3cccc(-c4nnc5n4[C@H](C)CC5)n3)cc2C1 [Example 12]
COc1cc2c(cc1C(=O)Nc1cccc(-c3nnc4n3C(C)(C)CC4)n1)CN(C(=O)OC(C)(C)C)CC2 [Example 14, tert-butyl 7-((6-(5,5-dimethyl-6,7-dihydro-5H-pyrrolo[2,1-c][1,2,4]triazol-3-yl)pyridin-2-yl)carbamoyl)-6-methoxy-3,4-dihydroisoquinoline-2(1H)-carboxylate]
CCOC(=O)N1CCc2cnc(C(=O)Nc3cccc(-c4nnc5n4[C@H](C)CC5)n3)cc2C1 [Example 15]
CCOC(=O)N1CCc2cc(OC)c(C(=O)Nc3cccc(-c4nnc5n4CCC5)n3)cc2C1 [Example 21, Ethyl 7-((6-(6,7-dihydro-5H-pyrrolo[2,1-c][1,2,4]triazol-3-yl)pyridin-2-yl)carbamoyl)-6-methoxy-3,4-dihydroisoquinoline-2(1H)-carboxylate]

IC50, < 1.25 nM:
COCCC(=O)N1CCc2cc(OC)c(C(=O)Nc3cccc(-c4nnc5n4C(C)(C)CC5)n3)cc2C1 [Example 16, N-(6-(5,5-dimethyl-6,7-dihydro-5H-pyrrolo[2,1-c][1,2,4]triazol-3-yl)pyridin-2-yl)-6-methoxy-2-(3-methoxypropanoyl)-1,2,3,4-tetrahydroisoquinoline-7-carboxamide]
COc1cc2c(cc1C(=O)Nc1cccc(-c3nnc4n3C(C)(C)CC4)n1)CN(C(=O)C(C)(C)CO)CC2 [Example 17, N-(6-(5,5-dimethyl-6,7-dihydro-5H-pyrrolo[2,1-c][1,2,4]triazol-3-yl)pyridin-2-yl)-2-(3-hydroxy-2,2-dimethylpropanoyl)-6-methoxy-1,2,3,4-tetrahydroisoquinoline-7-carboxamide]
COc1cc2c(cc1C(=O)Nc1cccc(-c3nnc4n3C(C)(C)CC4)n1)CN(C(=O)C[C@H](C)O)CC2 [Example 18, (S)—N-(6-(5,5-dimethyl-6,7-dihydro-5H-pyrrolo[2,1-c][1,2,4]triazol-3-yl)pyridin-2-yl)-2-(3-hydroxybutanoyl)-6-methoxy-1,2,3,4-tetrahydroisoquinoline-7-carboxamide]
COc1cc2c(cc1C(=O)Nc1cccc(-c3nnc4n3C(C)(C)CC4)n1)CN(C(=O)[C@@H](O)CC(C)C)CC2 [Example 19, (S)—N-(6-(5,5-dimethyl-6,7-dihydro-5H-pyrrolo[2,1-c][1,2,4]triazol-3-yl)pyridin-2-yl)-2-(2-hydroxy-4-methylpentanoyl)-6-methoxy-1,2,3,4-tetrahydroisoquinoline-7-carboxamide]
COc1cc2c(cc1C(=O)Nc1cccc(-c3nnc4n3C(C)(C)CC4)n1)CN(C(=O)C(C)(C)O)CC2 [Example 20, N-(6-(5,5-dimethyl-6,7-dihydro-5H-pyrrolo[2,1-c][1,2,4]triazol-3-yl)pyridin-2-yl)-2-(2-hydroxy-2-methylpropanoyl)-6-methoxy-1,2,3,4-tetrahydroisoquinoline-7-carboxamide]

IC50, 10 to 100 nM:
CCOC(=O)N1CCc2cc(F)c(C(=O)Nc3cccc(-c4nnc5n4[C@@H](C)CC5)n3)cc2C1 [Example 13]

— US11466033B2 (ENANTA PHARMACEUTICALS, INC., priority 2019, dated 2022)
